{"source": "patent US9125913B2", "about": "“Bcl-2-selective apoptosis-inducing agents for the treatment of cancer and immune diseases” (AbbVie Inc., priority 2008, dated 2015)"}
{"tested_on": "GST-Bcl-2", "assay": "TR-FRET binding assay, Bcl-2", "settings": "TR-FRET Ki values", "procedure,_shortened": "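Ki values come from Wang's competitive-binding equation applied to TR-FRET signal (excitation 340/35 nm; emission 520/525 nm F-Bak peptide, 495/510 nm Tb antibody). Protein, probe and antibody incubated with compound 3 h at room temperature; dilution series began at 50 μM as 2× stock in 10% DMSO.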"}
{"smiles": "CC1(C)CCC(CN2CCN(c3ccc(C(=O)NS(=O)(=O)c4cnc(NCC5CCOCC5)c(Br)c4)c(Oc4cccc5[nH]ccc45)c3)CC2)=C(c2ccc(Cl)cc2)C1", "note": "[EXAMPLE 325, N-({5-bromo-6-[(tetrahydro-2H-pyran-4-ylmethyl)amino]pyridin-3-yl}sulfonyl)-4-(4-{[2-(4-chlorophenyl)-4,4-dimethylcyclohex-1-en-1-yl]methyl}piperazin-1-yl)-2-(1H-indol-4-yloxy)benzamide]", "Binding selectivity ratio (Bcl-XL Ki/Bcl-2 Ki)": ">283.1"}
{"smiles": "CC1(C)CCC(CN2CCN(c3ccc(C(=O)NS(=O)(=O)c4ccc(NCCOC(F)(F)F)c([N+](=O)[O-])c4)c(Oc4cccc5[nH]ccc45)c3)CC2)=C(c2ccc(Cl)cc2)C1", "note": "[EXAMPLE 292, 4-(4-{[2-(4-chlorophenyl)-4,4-dimethylcyclohex-1-en-1-yl]methyl}piperazin-1-yl)-2-(1H-indol-4-yloxy)-N-[(3-nitro-4-{[2-(trifluoromethoxy)ethyl]amino}phenyl)sulfonyl]benzamide]", "Binding selectivity ratio (Bcl-XL Ki/Bcl-2 Ki)": ">1104.2"}
{"smiles": "CC(C)n1cc(CN2CCN(c3ccc(C(=O)NS(=O)(=O)c4ccc(NCC5CCOCC5)c([N+](=O)[O-])c4)c(Oc4ccc5[nH]ccc5c4)c3)CC2)c(-c2ccc(Cl)cc2)cc1=O", "note": "[EXAMPLE 307, 4-(4-{[4-(4-chlorophenyl)-1-isopropyl-6-oxo-1,6-dihydropyridin-3-yl]methyl}piperazin-1-yl)-2-(1H-indol-5-yloxy)-N-({3-nitro-4-[(tetrahydro-2H-pyran-4-ylmethyl)amino]phenyl}sulfonyl)benzamide]", "Binding selectivity ratio (Bcl-XL Ki/Bcl-2 Ki)": ">177.1"}
{"smiles": "CC(C)N(C)CCCNc1ccc(S(=O)(=O)NC(=O)c2ccc(N3CCN(Cc4ccccc4-c4ccc(Cl)cc4)CC3)cc2Oc2ccccc2)cc1[N+](=O)[O-]", "note": "[Example 93, 4-{4-[(4′-chloro-1,1′-biphenyl-2-yl)methyl]piperazin-1-yl}-N-{[4-({3-[isopropyl(methyl)amino]propyl}amino)-3-nitrophenyl]sulfonyl}-2-phenoxybenzamide]", "Binding selectivity ratio (Bcl-XL Ki/Bcl-2 Ki)": 60}
{"smiles": "CC1(C)CCC(CN2CCN(c3ccc(C(=O)NS(=O)(=O)c4ccc(NC[C@H]5CC[C@@H](O)CC5)c([N+](=O)[O-])c4)c(Oc4ccc5[nH]ccc5c4)c3)CC2)=C(c2ccc(Cl)cc2)C1", "note": "[EXAMPLE 312, Cis-4-(4-{[2-(4-chlorophenyl)-4,4-dimethylcyclohex-1-en-1-yl]methyl}piperazin-1-yl)-N-[(4-{[(4-hydroxycyclohexyl)methyl]amino}-3-nitrophenyl)sulfonyl]-2-(1H-indol-5-yloxy)benzamide]", "Binding selectivity ratio (Bcl-XL Ki/Bcl-2 Ki)": ">1941.2"}
{"smiles": "COc1ccc(Nc2ccc(S(=O)(=O)NC(=O)c3ccc(N4CCN(CC5=C(c6ccc(Cl)cc6)CC(C)(C)CC5)CC4)cc3Oc3ccc4[nH]ccc4c3)cc2[N+](=O)[O-])cc1O", "note": "[EXAMPLE 394, 4-(4-{[2-(4-chlorophenyl)-4,4-dimethylcyclohex-1-en-1-yl]methyl}piperazin-1-yl)-N-({4-[(3-hydroxy-4-methoxyphenyl)amino]-3-nitrophenyl}sulfonyl)-2-(1H-indol-5-yloxy)benzamide]", "Binding selectivity ratio (Bcl-XL Ki/Bcl-2 Ki)": ">263262.863980854"}
{"smiles": "CC1(C)CCC(CN2CCN(c3ccc(C(=O)NS(=O)(=O)c4ccc(NCCCN5CCOCC5)c([N+](=O)[O-])c4)c(Oc4ccc5[nH]ncc5c4)c3)CC2)=C(c2ccc(Cl)cc2)C1", "note": "[Example 20, 4-(4-{[2-(4-chlorophenyl)-4,4-dimethylcyclohex-1-en-1-yl]methyl}piperazin-1-yl)-2-(1H-indazol-5-yloxy)-N-({4-[(3-morpholin-4-ylpropyl)amino]-3-nitrophenyl}sulfonyl)benzamide]", "Binding selectivity ratio (Bcl-XL Ki/Bcl-2 Ki)": 32.8}
{"smiles": "COC1CCC(Nc2ccc(S(=O)(=O)NC(=O)c3ccc(N4CCN(CC5=C(c6ccc(Cl)cc6)CC(C)(C)CC5)CC4)cc3Oc3ccc4[nH]ccc4c3)cc2[N+](=O)[O-])CC1", "note": "(stereo not shown) [EXAMPLE 265, 4-(4-{[2-(4-chlorophenyl)-4,4-dimethylcyclohex-1-en-1-yl]methyl}piperazin-1-yl)-2-(1H-indol-5-yloxy)-N-({4-[(4-methoxycyclohexyl)amino]-3-nitrophenyl}sulfonyl)benzamide]", "Binding selectivity ratio (Bcl-XL Ki/Bcl-2 Ki)": ">388.8"}
{"smiles": "CC1(C)CCC(CN2CCN(c3ccc(C(=O)NS(=O)(=O)c4ccc(NCCN5CCNC5=O)c([N+](=O)[O-])c4)c(Oc4ccc5[nH]ccc5c4)c3)CC2)=C(c2ccc(Cl)cc2)C1", "note": "[EXAMPLE 268, 4-(4-{[2-(4-chlorophenyl)-4,4-dimethylcyclohex-1-en-1-yl]methyl}piperazin-1-yl)-2-(1H-indol-5-yloxy)-N-[(3-nitro-4-{[2-(2-oxoimidazolidin-1-yl)ethyl]amino}phenyl)sulfonyl]benzamide]", "Binding selectivity ratio (Bcl-XL Ki/Bcl-2 Ki)": 1563.9}
{"smiles": "CC1(C)CCC(CN2CCN(c3ccc(C(=O)NS(=O)(=O)c4ccc(NC5CCN(C6CCOCC6)CC5)c([N+](=O)[O-])c4)c(Oc4cccc5[nH]ncc45)c3)CC2)=C(c2ccc(Cl)cc2)C1", "note": "[EXAMPLE 401, 4-(4-{[2-(4-chlorophenyl)-4,4-dimethylcyclohex-1-en-1-yl]methyl}piperazin-1-yl)-2-(1H-indazol-4-yloxy)-N-({3-nitro-4-[(1-tetrahydro-2H-pyran-4-ylpiperidin-4-yl)amino]phenyl}sulfonyl)benzamide]", "Binding selectivity ratio (Bcl-XL Ki/Bcl-2 Ki)": ">162.14"}
{"smiles": "O=C(NS(=O)(=O)c1ccc(NCC2CCOCC2)c([N+](=O)[O-])c1)c1ccc(N2CCN(Cc3ccccc3-c3ccc(Cl)cc3)CC2)cc1Oc1ccccc1", "note": "[Example 1, 4-{4-[(4′-chloro-1,1′-biphenyl-2-yl)methyl]piperazin-1-yl}-N-({3-nitro-4-[(tetrahydro-2H-pyran-4-ylmethyl)amino]phenyl}sulfonyl)-2-phenoxybenzamide]", "Binding selectivity ratio (Bcl-XL Ki/Bcl-2 Ki)": 85.4}
{"smiles": "CC1(C)CCC(CN2CCN(c3ccc(C(=O)NS(=O)(=O)c4cnc(NCC5CCOCC5)c(-c5nccs5)c4)c(Oc4cccc5[nH]ccc45)c3)CC2)=C(c2ccc(Cl)cc2)C1", "note": "[EXAMPLE 365, 4-(4-{[2-(4-chlorophenyl)-4,4-dimethylcyclohex-1-en-1-yl]methyl}piperazin-1-yl)-2-(1H-indol-4-yloxy)-N-{[6-[(tetrahydro-2H-pyran-4-ylmethyl)amino]-5-(1,3-thiazol-2-yl)pyridin-3-yl]sulfonyl}benzamide]", "Binding selectivity ratio (Bcl-XL Ki/Bcl-2 Ki)": ">612.9"}
{"smiles": "CC1(C)CCC(CN2CCN(c3ccc(C(=O)NS(=O)(=O)c4ccc(N[C@@H]5CCN(CC#N)C5)c([N+](=O)[O-])c4)c(Oc4cccc5[nH]cnc45)c3)CC2)=C(c2ccc(Cl)cc2)C1", "note": "[EXAMPLE 428, 2-(1H-benzimidazol-4-yloxy)-4-(4-{[2-(4-chlorophenyl)-4,4-dimethylcyclohex-1-en-1-yl]methyl}piperazin-1-yl)-N-[(4-{[(3R)-1-(cyanomethyl)pyrrolidin-3-yl]amino}-3-nitrophenyl)sulfonyl]benzamide]", "Binding selectivity ratio (Bcl-XL Ki/Bcl-2 Ki)": 5832}
{"smiles": "O=C(NS(=O)(=O)c1ccc(NCC2CCOCC2)c([N+](=O)[O-])c1)c1ccc(N2CCN(Cc3ccc(C(F)(F)F)cc3-c3ccc(Cl)cc3)CC2)cc1Oc1ccc2[nH]ccc2c1", "note": "[EXAMPLE 339, 4-(4-{[4′-chloro-5-(trifluoromethyl)-1,1′-biphenyl-2-yl]methyl}piperazin-1-yl)-2-(1H-indol-5-yloxy)-N-({3-nitro-4-[(tetrahydro-2H-pyran-4-ylmethyl)amino]phenyl}sulfonyl)benzamide]", "Binding selectivity ratio (Bcl-XL Ki/Bcl-2 Ki)": ">46.7"}
{"smiles": "CC1(C)CCC(CN2CCN(c3ccc(C(=O)NS(=O)(=O)c4ccc(NCC5(N)CCCCC5)c([N+](=O)[O-])c4)c(Oc4ccc5[nH]ccc5c4)c3)CC2)=C(c2ccc(Cl)cc2)C1", "note": "[EXAMPLE 250, N-[(4-{[(1-aminocyclohexyl)methyl]amino}-3-nitrophenyl)sulfonyl]-4-(4-{[2-(4-chlorophenyl)-4,4-dimethylcyclohex-1-en-1-yl]methyl}piperazin-1-yl)-2-(1H-indol-5-yloxy)benzamide]", "Binding selectivity ratio (Bcl-XL Ki/Bcl-2 Ki)": 811}
{"smiles": "Cn1ncc(-c2ccc(Cl)cc2)c1CN1CCN(c2ccc(C(=O)NS(=O)(=O)c3ccc(NCC4CCOCC4)c([N+](=O)[O-])c3)c(Oc3ccc4[nH]ccc4c3)c2)CC1", "note": "[EXAMPLE 285, 4-(4-{[4-(4-chlorophenyl)-1-methyl-1H-pyrazol-5-yl]methyl}piperazin-1-yl)-2-(1H-indol-5-yloxy)-N-({3-nitro-4-[(tetrahydro-2H-pyran-4-ylmethyl)amino]phenyl}sulfonyl)benzamide]", "Binding selectivity ratio (Bcl-XL Ki/Bcl-2 Ki)": ">94.4"}
{"smiles": "CC1(C)CC(c2ccc(Cl)cc2)=C(CN2CCN(c3ccc(C(=O)NS(=O)(=O)c4ccc(NCC5CCOCC5)c([N+](=O)[O-])c4)c(Oc4ccc5[nH]ccc5c4)c3)CC2)CO1", "note": "[EXAMPLE 182, 4-(4-{[4-(4-chlorophenyl)-6,6-dimethyl-5,6-dihydro-2H-pyran-3-yl]methyl}piperazin-1-yl)-2-(1H-indol-5-yloxy)-N-({3-nitro-4-[(tetrahydro-2H-pyran-4-ylmethyl)amino]phenyl}sulfonyl)benzamide]", "Binding selectivity ratio (Bcl-XL Ki/Bcl-2 Ki)": ">7595.8"}
{"smiles": "COCCNc1ccc(S(=O)(=O)NC(=O)c2ccc(N3CCN(CC4=C(c5ccc(Cl)cc5)CC(C)(C)CC4)CC3)cc2Oc2ccc3[nH]ccc3c2)cc1S(=O)(=O)C(F)(F)F", "note": "[EXAMPLE 315, 4-(4-{[2-(4-chlorophenyl)-4,4-dimethylcyclohex-1-en-1-yl]methyl}piperazin-1-yl)-2-(1H-indol-5-yloxy)-N-({4-[(2-methoxyethyl)amino]-3-[(trifluoromethyl)sulfonyl]phenyl}sulfonyl)benzamide]", "Binding selectivity ratio (Bcl-XL Ki/Bcl-2 Ki)": ">190.7"}
{"smiles": "CC1(C)CCC(CN2CCN(c3ccc(C(=O)NS(=O)(=O)c4cnc(OCC5(F)CCOCC5)c(C#N)c4)c(Oc4cccc5[nH]ccc45)c3)CC2)=C(c2ccc(Cl)cc2)C1", "note": "[EXAMPLE 393, 4-(4-{[2-(4-chlorophenyl)-4,4-dimethylcyclohex-1-en-1-yl]methyl}piperazin-1-yl)-N-({5-cyano-6-[(4-fluorotetrahydro-2H-pyran-4-yl)methoxy]pyridin-3-yl}sulfonyl)-2-(1H-indol-4-yloxy)benzamide]", "Binding selectivity ratio (Bcl-XL Ki/Bcl-2 Ki)": 1110}
